From patent US11358969B2, “Indole AHR inhibitors and uses thereof” (Ikena Oncology, Inc., priority 2017, dated 2022) come the findings set out here.

For data set [1], the target named is T1, AHR (UniProt P35869).
T1 construct: IC50
T1 sequence (P35869 1-848): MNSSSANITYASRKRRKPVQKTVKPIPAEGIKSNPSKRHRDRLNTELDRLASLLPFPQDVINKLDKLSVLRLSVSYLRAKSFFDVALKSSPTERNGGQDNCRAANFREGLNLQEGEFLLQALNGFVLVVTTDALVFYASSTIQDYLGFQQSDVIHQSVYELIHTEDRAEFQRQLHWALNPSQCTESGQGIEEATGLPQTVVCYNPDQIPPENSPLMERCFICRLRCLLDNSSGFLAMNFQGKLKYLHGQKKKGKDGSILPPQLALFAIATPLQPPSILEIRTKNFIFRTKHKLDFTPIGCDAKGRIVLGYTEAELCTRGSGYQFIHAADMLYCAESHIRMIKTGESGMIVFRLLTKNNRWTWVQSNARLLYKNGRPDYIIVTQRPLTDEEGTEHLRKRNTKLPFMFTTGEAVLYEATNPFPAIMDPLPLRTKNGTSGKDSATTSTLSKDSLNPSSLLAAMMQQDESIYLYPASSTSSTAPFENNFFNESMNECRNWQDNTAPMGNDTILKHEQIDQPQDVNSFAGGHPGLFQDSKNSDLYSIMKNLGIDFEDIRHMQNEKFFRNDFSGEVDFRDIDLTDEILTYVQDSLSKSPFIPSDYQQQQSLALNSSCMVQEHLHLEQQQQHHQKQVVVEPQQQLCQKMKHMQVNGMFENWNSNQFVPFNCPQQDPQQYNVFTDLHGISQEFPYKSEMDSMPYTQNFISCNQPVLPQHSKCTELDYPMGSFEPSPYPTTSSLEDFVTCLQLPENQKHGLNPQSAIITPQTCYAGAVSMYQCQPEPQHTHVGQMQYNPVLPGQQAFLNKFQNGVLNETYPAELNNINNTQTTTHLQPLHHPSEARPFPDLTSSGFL
The data set is described as follows: DRE-Luciferase Reporter Assay (Alternate Method) (Example 1B). In kind it is cell-based, murine or human. The settings on record: cell line and AHR activating ligand not specified. Background: A reporter such as luciferase makes a cellular process visible.

The nature of data set [2]: Mouse Pharmacokinetic Study (Example 1C). The conditions noted are these: plasma, CD-1 mice; for bioavailability / AUC(0-inf) / AUC(0-t) / clearance / half-life / Vd / Cmax / Tmax: mouse; for Vd: read-out: Vdss. The class given is in vivo. The method, then: Formulations of compounds set forth in Table 4 were administered intravenously or orally via gavage to CD-1 mice. Typically, at 0.167, 0.5, 1, 2, 4, 6, 12, and 24 hours post-dose, blood was collected and processed to plasma by centrifugation and stored at −80° C. until analysis.
Internal standard was added to each sample prior to protein precipitation with acetonitrile. The precipitates were filtered through a Phree phospholipid removal filter plate and the samples were analyzed by LC/MS/MS. A standard curve was prepared in plasma from typically from 1.0 ng/mL to 3000 ng/mL and processed in the same manner as the samples. Sample analysis was typically performed on a suitable LC/MS/MS system fitted with an analytical UPLC column and compounds eluted from the analytical column with a gradient from 30-95% 0.1% formic acid (v/v) in ACN: 0.1% formic acid (v/v) in water. Mass spectrometric detection of test compound and the internal standard was performed by MRM in positive mode. The pharmacokinetics of each compound were analyzed by Phoenix WinNonlin software (Pharsight, St. Louis, Mo.) via non-compartmental analysis.

Data set [3] is described as follows: In Vitro Mouse liver S9 Metabolic Stability Assay (Example 1D). The class given is in vitro ADME. The conditions noted are these: CD-1 mouse liver S9, 1 μM compound, 1 mg/mL S9 protein, 37° C., NADPH regenerating system, UDPGA, PAPS. The method, then: CD-1 mouse liver S9 were purchased from Corning or XenoTech LLC or BioreclamationIVT, LLC or WuXi prepared. The cells were stored at −80° C. in a freezer before use. β-Nicotinamide adenine dinucleotide phosphate (NADP), Glucose 6-phosphate (G6P), Glucose 6-phosphate dehydrogenase from yeast (G6PDH), Uridine 5′-diphophoglucuronic acid trisodium salt (UDPGA) and Adenosine 3′-phosphate 5′-phosphosulfate lithium salt hydrate (PAPS) were available commercially from Sigma.
Compounds were diluted in DMSO to make 10 mM stock solution. 5 μL of this stock solution (10 mM, DMSO) was diluted with 45 μL DMSO and 450 μL 50% Methanol/Water to make intermediate stock solution (100 μM, 45% MeOH, 10% DMSO). 50 μL of intermediate stock solution was diluted with 450 μL 100 mM phosphate buffer to make a final stock solution (10 μM, 4.5% MeOH, 1% DMSO). 10 uL of final stock solution was added to 90 uL liver S9 system (final concentration of 1 μM, 0.45% MeOH, 0.1% DMSO).
Test compounds were incubated at 37° C. with liver S9 (pooled from multiple donors) at 1 μM in the presence of a NADPH regenerating system, UDPGA, and PAPS at 1 mg/mL S9 protein. Time samples (0 and 60 minutes) were removed and immediately mixed with cold acetonitrile containing internal standard (IS). Samples were analyzed by LC/MS/MS and disappearance of test compounds were assessed based on peak area ratios of analyte /IS (no standard curve). All samples were injected and analyzed using LC-MS/MS. The analyte/internal standard peak area ratios were converted to percentage remaining (% Remaining) with the following equation: % Remaining at 60 min=(Peak area ratio of analyte to IS at 60 min/Peak area ratio of analyte to IS at t=0)×100%. Table 5. Mouse Stability Data According to Example 1D.

The mark [4] stands for this setting: po, 15 mg/kg, 3.00 mg/mL in DMSO:solutol:water = 5:10:85, solution.

Usually IC50 stands for the point on the concentration scale where inhibition reaches its midpoint. High values mean lower potency, low ones higher potency. As usually defined, the bioavailability is dose-corrected exposure relative to a reference, in per cent. The low end stands for little systemic uptake, the high end for much systemic uptake. Usually AUC(0-inf) stands for total exposure, with the tail of the curve extrapolated. The AUC(0-t) is exposure summed from dosing to a finite time, without extrapolation to infinity. A lower AUC(0-t) goes with less exposure. Broadly, the clearance is a measure of how efficiently the substance is removed, as volume per time. Read a low clearance as inefficient removal. By half-life is commonly meant how long it takes for the measured level to halve. The low end stands for rapid decline, the high end for slow decline. The term Cmax denotes the peak of the concentration-time curve. Usually Tmax stands for the time at which the peak concentration occurs. As to `Fc1cncc(-c2cc(OC3CCCC3)nc(NCCc3c[nH]c4ccccc34)n2)c1` [I-59, 4-(Cyclopentoxy)-6-(5-fluoro-3-pyridyl)-N-[2-(1H-indol-3-yl)ethyl]pyrimidin-2-amine], the IC50 in data set [1] is below 500 nM. Further, in data set [2] (po, 30 mg/kg), the bioavailability came to 22%, the AUC(0-inf) was 2130 ng·h/mL, the AUC(0-t) is 2110 ng·h/mL and the highest level (Cmax) was 719 ng/mL. In addition, in data set [2] (po, 30 mg/kg), the Tmax was found to be 0.5 h and the half-life is 4.3 h. In data set [2] (iv, 3 mg/kg), this compound showed an AUC(0-inf) of 949 ng·h/mL, an AUC(0-t) of 925 ng·h/mL, a clearance of 53 mL/min/kg and a half-life of 6.6 h. Moreover, in data set [2] (iv, 3 mg/kg), the Vd amounted to 11.2 L/kg. Moreover, in data set [3], the “Mouse S9 Stability: % Remaining After 60 Minutes” value was found to be 11%.

In data set [1], `O=C(c1cnn2c(NCCc3c[nH]c4ccccc34)cc(-c3cncc(F)c3)nc12)N1CCOCC1` [I-65, [5-(5-Fluoro-3-pyridyl)-7-[2-(1H-indol-3-yl)ethylamino]pyrazolo[1,5-a]pyrimidin-3-yl]-morpholino-methanone] had an IC50 below 500 nM. In data set [2] (po, 30 mg/kg), this compound came in with a bioavailability of 7%, an AUC(0-inf) of 373 ng·h/mL, an AUC(0-t) of 370 ng·h/mL and a Cmax of 574 ng/mL. Moreover, in data set [2] (po, 30 mg/kg), the Tmax amounted to 0.2 h and the half-life was 0.8 h. In data set [2] (iv, 3 mg/kg), this compound gave an AUC(0-inf) of 537 ng·h/mL, an AUC(0-t) of 522 ng·h/mL, a clearance of 93.1 mL/min/kg and a half-life of 0.7 h. Moreover, the Vd in data set [2] (iv, 3 mg/kg) was found to be 2.7 L/kg. Further, the “Mouse S9 Stability: % Remaining After 60 Minutes” value in data set [3] amounted to 0%.

For `Cc1[nH]c2c(F)cc(F)cc2c1CCNc1cc(-c2cncc(F)c2)nc2c(C(C)C)cnn12` [I-107, N-[2-(5,7-Difluoro-2-methyl-1H-indol-3-yl)ethyl]-5-(5-fluoro-3-pyridyl)-3-isopropyl-pyrazolo[1,5-a]pyrimidin-7-amine], in data set [1], the IC50 was below 500 nM. In data set [2] (setting [4]), the “Tlast” value is listed as 0 h, the bioavailability is 0% and the Tmax amounted to 0 h. For the same compound, in data set [2] (iv, 3 mg/kg), the AUC(0-inf) came out at 92 ng·h/mL, the AUC(0-t) is 88 ng·h/mL, the clearance was 540 mL/min/kg and the half-life is 2.18 h. Also, the Vd in data set [2] (iv, 3 mg/kg) came out at 43.2 L/kg. Further, the “Mouse S9 Stability: % Remaining After 60 Minutes” value in data set [3] came to 0%.

The compound `Fc1cncc(-c2nc(N[C@@H]3CCc4[nH]c5ccccc5c4C3)n3ncc(Br)c3n2)c1` [I-154, (3R)—N-[8-Bromo-2-(5-fluoro-3-pyridyl)pyrazolo[1,5-a][1,3,5]triazin-4-yl]-2,3,4,9-tetrahydro-1H-carbazol-3-amine] had an IC50 in data set [1] below 500 nM. In data set [2] (po, 30 mg/kg), this compound registered a bioavailability of 39%, a total exposure AUC(0-inf) of 11200 ng·h/mL, an exposure AUC(0-t) of 9360 ng·h/mL and a Cmax of 840 ng/mL. In data set [2] (po, 30 mg/kg), the Tmax was determined as 2 h and the half-life was 9.6 h. In data set [2] (iv, 3 mg/kg), this compound showed a total exposure AUC(0-inf) of 3030 ng·h/mL, an AUC(0-t) of 2410 ng·h/mL, a clearance of 16.5 mL/min/kg and a half-life of 12 h. In data set [2] (iv, 3 mg/kg), the Vd came to 13.7 L/kg. In addition, the “Mouse S9 Stability: % Remaining After 60 Minutes” value in data set [3] stood at 13%.

`Cc1cnn2c(NCCc3cc[nH]c3)cc(-c3cncc(F)c3)nc12` [I-196, 5-(5-Fluoro-3-pyridyl)-3-methyl-N-[2-(1H-pyrrol-3-yl)ethyl]pyrazolo[1,5-a]pyrimidin-7-amine] had an IC50 in data set [1] below 500 nM. For the same compound, in data set [3], the “Mouse S9 Stability: % Remaining After 60 Minutes” value stood at 0%.

`Cc1[nH]c2c(F)cccc2c1CCNc1nc(-c2cncc(F)c2)nc2ccnn12` [I-200, N-[2-(7-fluoro-2-methyl-1H-indol-3-yl)ethyl]-2-(5-fluoro-3-pyridyl)pyrazolo[1,5-a][1,3,5]triazin-4-amine] gave an IC50 in data set [1] below 500 nM. In data set [3], the “Mouse S9 Stability: % Remaining After 60 Minutes” value amounted to 0%.

Consider `Cc1[nH]c2c(F)cccc2c1CCNc1nc(-c2cncc(F)c2)nc2c(C)cnn12` [I-202, N-[2-(7-Fluoro-2-methyl-1H-indol-3-yl)ethyl]-2-(5-fluoro-3-pyridyl)-8-methyl-pyrazolo[1,5-a][1,3,5]triazin-4-amine], for which, in data set [1], the IC50 is below 500 nM. Further, the “Mouse S9 Stability: % Remaining After 60 Minutes” value in data set [3] turned out to be 0%.

As for `Fc1cncc(-c2cc(NCCc3c[nH]c4cccnc34)n3nccc3n2)c1` [I-208, 5-(5-Fluoro-3-pyridyl)-N-[2-(1H-pyrrolo[3,2-b]pyridin-3-yl)ethyl]pyrazolo[1,5-a]pyrimidin-7-amine], the IC50 in data set [1] was above 1500 nM. For the same compound, in data set [3], the “Mouse S9 Stability: % Remaining After 60 Minutes” value is reported as 0%.

`Cc1cnn2c(NCCc3c[nH]c4cccnc34)cc(-c3cncc(F)c3)nc12` [I-209, 5-(5-Fluoro-3-pyridyl)-3-methyl-N-[2-(1H-pyrrolo[3,2-b]pyridin-3-yl)ethyl]pyrazolo[1,5-a]pyrimidin-7-amine] showed an IC50 in data set [1] of 500 to 1000 nM. Further, the “Mouse S9 Stability: % Remaining After 60 Minutes” value in data set [3] turned out to be 0%.

Consider `Cc1[nH]c2c(F)cccc2c1CCNc1cc(-c2cncc(F)c2)nc2ccnn12` [I-214, N-[2-(7-Fluoro-2-methyl-1H-indol-3-yl)ethyl]-5-(5-fluoro-3-pyridyl)pyrazolo[1,5-a]pyrimidin-7-amine], for which, in data set [1], the IC50 is below 500 nM. For the same compound, in data set [3], the “Mouse S9 Stability: % Remaining After 60 Minutes” value is 0%.

Compound `Cc1[nH]c2c(F)cccc2c1CCNc1cc(-c2cncc(F)c2)nc2c(C)cnn12` [I-224, N-[2-(7-fluoro-2-methyl-1H-indol-3-yl)ethyl]-5-(5-fluoro-3-pyridyl)-3-methyl-pyrazolo[1,5-a]pyrimidin-7-amine] registered an IC50 in data set [1] below 500 nM. Further, the “Mouse S9 Stability: % Remaining After 60 Minutes” value in data set [3] is listed as 0%.

Compound `Cc1[nH]c2c(F)cccc2c1CCNc1cc(-c2cncc(F)c2)nc2c(C(F)(F)F)cnn12` [I-235, N-[2-(7-Fluoro-2-methyl-1H-indol-3-yl)ethyl]-5-(5-fluoro-3-pyridyl)-3-(trifluoromethyl)pyrazolo[1,5-a]pyrimidin-7-amine] had an IC50 in data set [1] below 500 nM. In data set [3], the “Mouse S9 Stability: % Remaining After 60 Minutes” value stood at 2%.
